Data taken from ChEMBL document CHEMBL3879907, “8-azabicyclo[3.2.1]octane compounds as mu opioid receptor antagonists” (2014).

Experiments:
Mus musculus [1] = test: Reversal of morphine-induced delayed gastrointestinal transit in sc dosed mouse compound administered prior to morphine challenge followed by non-nutritive, non-absorbable charcol meal administration by oral gavage at 5 mins post morphine challenge for 60 mins; format: functional; conditions: read-out: ID50 (the source's name)
Mus musculus [2] = test: Reversal of morphine-induced delayed gastrointestinal transit in po dosed mouse compound administered prior to morphine challenge followed by non-nutritive, non-absorbable charcol meal administration by oral gavage at 5 mins post morphine challenge for 60 mins; format: functional; conditions: read-out: ID50 (the source's name)
[3] = target: Delta-type opioid receptor (Homo sapiens, UniProt P41143); test: Displacement of [3H]-diprenorphine from human delta opioid receptor expressed in cell membranes
Delta-type opioid receptor, sequence (P41143 whole entry): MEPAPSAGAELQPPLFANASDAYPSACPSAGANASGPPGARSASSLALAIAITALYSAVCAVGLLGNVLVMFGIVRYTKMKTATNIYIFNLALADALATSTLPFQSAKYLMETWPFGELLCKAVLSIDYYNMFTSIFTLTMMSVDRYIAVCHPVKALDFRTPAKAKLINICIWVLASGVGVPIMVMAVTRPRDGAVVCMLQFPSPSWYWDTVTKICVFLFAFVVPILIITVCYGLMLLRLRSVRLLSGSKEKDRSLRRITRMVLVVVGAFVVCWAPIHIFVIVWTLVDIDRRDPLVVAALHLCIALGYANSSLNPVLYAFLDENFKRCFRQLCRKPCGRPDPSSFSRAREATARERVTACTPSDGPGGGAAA

[4] = target: Mu-type opioid receptor (Homo sapiens) (UniProt P35372); test: Intrinsic activity at human mu opioid receptor expressed in CHOK1 cell membranes at 0.00001 to 20 uM after 30 mins by GTP-Eu nucleotide exchange assay relative to DAMGO; format: functional; conditions: CHO-K1
Mu-type opioid receptor (Homo sapiens), sequence (P35372 whole entry): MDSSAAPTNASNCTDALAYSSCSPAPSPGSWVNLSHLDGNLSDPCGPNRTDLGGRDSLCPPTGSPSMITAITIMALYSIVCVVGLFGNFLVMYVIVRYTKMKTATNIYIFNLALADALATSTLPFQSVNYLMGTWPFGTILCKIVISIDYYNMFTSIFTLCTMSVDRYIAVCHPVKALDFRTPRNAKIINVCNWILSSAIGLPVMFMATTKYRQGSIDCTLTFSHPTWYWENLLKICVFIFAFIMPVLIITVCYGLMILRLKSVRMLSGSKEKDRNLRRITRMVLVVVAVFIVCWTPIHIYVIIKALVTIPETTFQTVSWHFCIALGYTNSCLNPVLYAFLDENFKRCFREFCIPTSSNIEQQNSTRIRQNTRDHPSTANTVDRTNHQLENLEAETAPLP

[5] = target: Kappa-type opioid receptor (Cavia porcellus, UniProt P41144); test: Displacement of [3H]-diprenorphine from guinea pig kappa opioid receptor expressed in CHOK1 cell membranes; conditions: cho-k1
Kappa-type opioid receptor, sequence (P41144 whole entry): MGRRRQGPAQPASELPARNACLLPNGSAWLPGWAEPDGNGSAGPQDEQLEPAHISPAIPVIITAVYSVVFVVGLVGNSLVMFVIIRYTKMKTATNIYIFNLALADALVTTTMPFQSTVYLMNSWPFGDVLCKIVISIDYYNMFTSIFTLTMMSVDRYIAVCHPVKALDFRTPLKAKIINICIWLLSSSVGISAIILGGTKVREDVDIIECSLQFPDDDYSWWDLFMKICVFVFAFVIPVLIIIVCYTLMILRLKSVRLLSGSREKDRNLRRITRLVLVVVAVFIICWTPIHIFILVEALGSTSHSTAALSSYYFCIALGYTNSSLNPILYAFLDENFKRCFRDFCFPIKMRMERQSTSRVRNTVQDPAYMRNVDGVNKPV

`NC(=O)c1cccc([C@H]2C[C@H]3CC[C@@H](C2)N3CCN(CC2CCC(F)(F)CC2)C(=O)CO)c1` gave an ED50 (Mus musculus [1]) of 0.1 to 3 mg/kg, an ED50 (Mus musculus [2]) of 0.1 to 3 mg/kg and a pKi [3] of 7 to 10.5. For the same molecule, the Intrinsic activity [4] was less than 40% and the pKi [5] was 7 to 10.5.
`NC(=O)c1cccc([C@H]2C[C@H]3CC[C@@H](C2)N3CCN(Cc2ccccc2)C(=O)CO)c1` gave an ED50 (Mus musculus [1]) of 0.1 to 3 mg/kg, an ED50 (Mus musculus [2]) of 0.1 to 3 mg/kg and a pKi [3] of 7 to 10.5. For the same molecule, the pKi [5] was 7 to 10.5.
`NC(=O)c1cccc([C@H]2C[C@H]3CC[C@@H](C2)N3CCN(CC2CCCCC2)C(=O)[C@@H](O)CO)c1` [AXELOPRAN] was tested, and the ED50 (Mus musculus [1]) was 0.1 to 3 mg/kg and the ED50 (Mus musculus [2]) was 0.1 to 3 mg/kg.
In the case of `NC(=O)c1cccc([C@H]2C[C@H]3CC[C@@H](C2)N3CCN(CCc2ccccc2)C(=O)CO)c1`, the ED50 (Mus musculus [1]) is reported as 0.1 to 3 mg/kg, the ED50 (Mus musculus [2]) is reported as 0.1 to 3 mg/kg and the pKi [3] is reported as 7 to 10.5.
With `NC(=O)c1cccc([C@H]2C[C@H]3CC[C@@H](C2)N3CCN(CC2CCCCC2)C(=O)[C@@H](O)CO)c1.O=C(O)C(=O)O` the ED50 (Mus musculus [1]) was 0.1 to 3 mg/kg, the ED50 (Mus musculus [2]) was 0.1 to 3 mg/kg and the pKi [3] was 7 to 10.5. It also gave a pKi [5] of 7 to 10.5.
For `NC(=O)c1cccc([C@H]2C[C@H]3CC[C@@H](C2)N3CCN(CC2CCCCC2)C(=O)CO)c1`, the ED50 (Mus musculus [1]) was 0.1 to 3 mg/kg, the ED50 (Mus musculus [2]) was 0.1 to 3 mg/kg and the Intrinsic activity [4] was less than 40%.
`NC(=O)c1cccc([C@H]2C[C@H]3CC[C@@H](C2)N3CCN(CC2CCCCC2)C(=O)[C@@H](O)CO)c1.O=S(=O)(O)O` [AXELOPRAN SULFATE] gave an ED50 (Mus musculus [1]) of 0.1 to 3 mg/kg and an ED50 (Mus musculus [2]) of 0.1 to 3 mg/kg.
For `CN(C)CC(=O)N(CCN1[C@@H]2CC[C@H]1C[C@@H](c1cccc(C(N)=O)c1)C2)CC1CCCCC1`, the pKi [3] was 7 to 10.5, the Intrinsic activity [4] was less than 40% and the pKi [5] was 7 to 10.5.
`O=C(C1CCCC1)N(CCN1[C@@H]2CC[C@H]1C[C@@H](c1cccc(O)c1)C2)CC1CCCCC1` gave a pKi [3] of 7 to 10.5, an Intrinsic activity [4] of less than 40% and a pKi [5] of 7 to 10.5.
Work on `O=C(NCc1ccc(F)cc1)N(CCN1[C@@H]2CC[C@H]1C[C@@H](c1cccc(O)c1)C2)CC1CCCCC1` yielded a pKi [3] of 7 to 10.5, an Intrinsic activity [4] of less than 40% and a pKi [5] of 7 to 10.5.
`C[C@H](O)C(=O)N(CCN1[C@@H]2CC[C@H]1C[C@@H](c1cccc(C(N)=O)c1)C2)CC1CCC1.O=C(O)C(F)(F)F` showed a pKi [3] of 7 to 10.5, an Intrinsic activity [4] of less than 40% and a pKi [5] of 7 to 10.5.
For `CC(CO)(CO)C(=O)N(CCN1[C@@H]2CC[C@H]1C[C@@H](c1cccc(C(N)=O)c1)C2)CC1CCCCC1`, the pKi [3] was 7 to 10.5, the Intrinsic activity [4] was less than 40% and the pKi [5] was 7 to 10.5.
For `CN(C)S(=O)(=O)N(CCN1[C@@H]2CC[C@H]1C[C@@H](c1cccc(C(N)=O)c1)C2)Cc1ccc(C(F)(F)F)cc1.O=C(O)C(F)(F)F`, the pKi [3] was 7 to 10.5, the Intrinsic activity [4] was less than 40% and the pKi [5] was 7 to 10.5.
For `NC(=O)c1cccc([C@H]2C[C@H]3CC[C@@H](C2)N3CCN(CC2CCCC2)C(=O)CO)c1.O=C(O)C(F)(F)F`, the pKi [3] was 7 to 10.5, the Intrinsic activity [4] was less than 40% and the pKi [5] was 7 to 10.5.
Work on `NC(=O)c1cccc([C@H]2C[C@H]3CC[C@@H](C2)N3CCN(Cc2c(F)cccc2F)C(=O)C2(O)CC2)c1.O=C(O)C(F)(F)F` yielded a pKi [3] of 7 to 10.5, an Intrinsic activity [4] of less than 40% and a pKi [5] of 7 to 10.5.
With `O=C(NCc1ccccc1)N(CCN1[C@@H]2CC[C@H]1C[C@@H](c1cccc(O)c1)C2)CC1CCCCC1` the pKi [3] was 7 to 10.5, the Intrinsic activity [4] was less than 40% and the pKi [5] was 7 to 10.5.
In the case of `CC(C)(CO)C(=O)N(CCN1[C@@H]2CC[C@H]1C[C@@H](c1cccc(C(N)=O)c1)C2)CC1CCCCC1`, the pKi [3] is reported as 7 to 10.5, the Intrinsic activity [4] is reported as less than 40% and the pKi [5] is reported as 7 to 10.5.
With `CCC(CC)C(=O)N(CCN1[C@@H]2CC[C@H]1C[C@@H](c1cccc(O)c1)C2)Cc1ccccc1` the pKi [3] was 7 to 10.5, the Intrinsic activity [4] was less than 40% and the pKi [5] was 7 to 10.5.
`C[C@H](CN1[C@@H]2CC[C@H]1C[C@@H](c1cccc(O)c1)C2)N(Cc1ccccc1)C(=O)CCC(=O)O` showed a pKi [3] of 7 to 10.5, an Intrinsic activity [4] of less than 40% and a pKi [5] of 7 to 10.5.
